# Results taken from US8088398B2, “Pharmaceutical compositions comprising fesoterodine” (UCB Pharma GmbH, priority 2006, dated 2012).
# Assays:
# [1] = Storage in open vials at 40° C. and 75% r.H. (stability, HPLC); assay type: physicochemical
# Experimental: Fesoterodine hydrogen fumarate, a granulate containing Fesoterodine hydrogen fumarate and xylitol in a weight-ratio of 10:90, as well as a composition comprising Fesoterodine hydrogen fumarate and xylitol were stored in open vials (25 ml brown glass bottles) for up to 12 weeks at 40° C. and 75% r.H. The results are shown in Table 4 below.
# The degradation of Fesoterodine was measured by HPLC. The following conditions were used to measure degradation products in the stability testing of Fesoterodine hydrogen fumarate: • Column: Polaris C18-Ether, 3 μm, 250 mm×4.6 mm • Eluent A: Water/methanesulfonic acid 1000:0.5 (v/v) • Eluent B: Acetonitrile/methanesulfonic acid 1000:0.5 (v/v) • Typical gradient profile:
# • Column temperature: 35° C. • Flow rate: 1.2 mL/min • Detection wavelength: 220 nm • Injection volume: 20 μL
# The retention time of the Active Metabolite was about 4.1 min (rrt=0.50); response factor: 1.4.
# Evaluation of the HPLC results was by the area percent method.
# A comparison of the observed average purity of a Fesoterodine-containing granulate and a corresponding composition as compared to pure Fesoterodine after open storage under stress conditions is set out in Table 4, wherein values are indicated in % of Fesoterodine hydrogen fumarate remaining at various times.
# [2] = Stability of blends of Fesoterodine with sugar alcohols / lactose; assay type: physicochemical
# Experimental: Blends of Fesoterodine hydrogen fumarate with xylitol, sorbitol, mannitol and maltitol were stored for 6 weeks and 3 months in closed vials at 25° C. and 60% r.H., in closed vials at 40° C. and 75% r.H., or in open vials at 40° C. and 75% r.H. and then tested for stability by measuring the purity of Fesoterodine. The initial purity of the Fesoterodine in the blends was 99.7%.
# [3] = tested on: healthy male and female human subjects; assay: Electrocardiographic effects (QT) of Fesoterodine formulations; assay type: in vivo; details: for QTc outlier analyses vs placebo: three days of treatment
# Experimental: Fesoterodine formulations were administered orally to steady state at dosages of 4 mg and 28 mg per day to healthy male and female human subjects and the effect of such administration on QT values was determined.
# The Fesoterodine 4 mg formulation was as follows. Higher dosage levels were obtained by administering multiple 4 mg formulations.
# Steady state was determined by pharmacokinetic analysis of the Active Metabolite. Assay sensitivity was shown by a significant increase from baseline in QTcF and QTcI after multiple doses of moxifloxacin. The mean time-averaged QTcF increased by 8.6 ms after three days of treatment with moxifloxacin.
# The study design was double-blind, single-site, randomized, placebo- and positive controlled, parallel. Two hundred and fifty-six male and female subjects were assigned to one of the following four treatment groups (N=64 each; at least 50% female): • Fesoterodine 4 mg.day • Fesoterodine 28 mg/day • Moxifloxacin 400 mg/day • Placebo
# Subjects were administered 3 days of one of the above four treatments. Three 12-lead ECGs were downloaded from an H-12 flash card (data carrier) at each of the following time points on Days −1, 1, and 3: 1, 2, 3, 4, 6, 8, 10, 12, 14, 16, 18, and 23.5 hours. Plasma samples for the determination of Active Metabolite concentration (and the concentration of further metabolites) were drawn on Day 1 and Day 3 predose and at 1, 2, 3, 4, 6, 8, 12, and 23.5 hours postdose.
# [4] = tested on: patients with overactive bladder; assay: Efficacy trial of Fesoterodine fumarate vs tolterodine ER and placebo; assay type: in vivo, human; details: FAS with LOCF; for Number of micturitions per 24 hours, Treatment difference vs Pbo / Urge incontinence per 24 hours, Treatment difference vs Pbo: ANCOVA; for Treatment response (responder rate): end of treatment
# Experimental: The Fesoterodine formulations were as follows: […]
# The trial was conducted in 19 countries. A total of 1135 subjects were randomized and 1103 subjects were included in the full analysis set: 279 in the placebo treatment group, 265 in the 4 mg Fesoterodine treatment group, 276 in the 8 mg Fesoterodine treatment group, and 283 in the 4 mg tolterodine ER treatment group. The mean age of subjects was 57 years. A total of 81% were female and 97% were white. There were no notable differences among the treatment groups with respect to gender, race, age, or weight/BMI.
# [5] = tested on: patients with overactive bladder; assay: Treatment-emergent adverse events in the efficacy trial (safety set)
# Experimental: A randomized, double-blind, double dummy, placebo and active-controlled trial in adult male and female human subjects was conducted.
# For the safety set, the number of patients were: 283 in the placebo treatment group, 272 in the Fesoterodine 4 mg/day treatment group, and 287 in the Fesoterodine 8 mg/day treatment group.
# [6] = Degradation of Fesoterodine during tablet production and storage; assay type: physicochemical
# Experimental: Granulates of Fesoterodine with various sugars and sugar alcohols were produced as described in Example 1. These granulates were then used to produce 4 mg tablets according to Example 2.1 and with the composition given as “Example C” in Table 1, as well as wherein the xylitol was substituted with mannitol, maltitol, sorbitol, or lactose.
# [7] = 4 mg/day, N = 272, listed as Feso
# [8] = 8 mg/day, N = 287, listed as Feso
compound,measurement,setting,value
"CC(C)C(=O)Oc1ccc(CO)cc1[C@H](CCN(C(C)C)C(C)C)c1ccccc1 [Fesoterodine, 2-[(1R)-3-(diisopropylamino)-1-phenylpropyl]-4-(hydroxymethyl)phenyl isobutyrate]",% of Fesoterodine hydrogen fumarate remaining (purity),[1]; 1 week,98.56%
same,% of Fesoterodine hydrogen fumarate remaining (purity),[1]; 2 weeks,97.67%
same,% of Fesoterodine hydrogen fumarate remaining (purity),[1]; 4 weeks,94.32%
same,% of Fesoterodine hydrogen fumarate remaining (purity),[1]; 12 weeks,about 50%
same,% of Fesoterodine hydrogen fumarate remaining (purity),"[1]; 12 weeks, listed as Fesoterodine (pure)",50.39%
same,% of Fesoterodine hydrogen fumarate remaining (purity),[1]; Initial,98.96%
same,Purity of Fesoterodine in blends,"[2]; closed vial 25° C., 60% r.H., 3 months",99.7%
same,Purity of Fesoterodine in blends,"[2]; closed vial 25° C., 60% r.H., 6 weeks",99.6%
same,Purity of Fesoterodine in blends,"[2]; closed vial 40° C., 75% r.H., 6 weeks",99.3%
same,Purity of Fesoterodine in blends,"[2]; open vial 40° C., 75% r.H., 3 months",53.1%
same,Purity of Fesoterodine in blends,"[2]; open vial 40° C., 75% r.H., 6 weeks",96.3%
same,mean time-averaged QTcF decrease,"[3]; 4 mg Fesoterodine per day, after three days of treatment",4.6 ms
same,mean time-averaged QTcF decrease,"[3]; 28 mg Fesoterodine per day, after three days of treatment",5.0 ms
same,effect on myocardial repolarization (QTcF and QTcI vs placebo),[3]; multiple 4 mg and 28 mg doses,did not exert an effect on myocardial repolarization
same,QTc outlier analyses vs placebo,[3],no differences between the Fesoterodine treatment groups and placebo
same,"Number of micturitions per 24 hours, Treatment difference vs Pbo",[4]; 4 mg vs Pbo,−0.81
same,"Urge incontinence per 24 hours, Treatment difference vs Pbo",[4]; 4 mg vs Pbo,−0.81
same,"Number of micturitions per 24 hours, ANCOVA Endpoint LS Mean",[4]; 4 mg,−1.76
same,"Urge incontinence per 24 hours, ANCOVA Endpoint LS Mean",[4]; 4 mg,−1.95
same,"Number of micturitions per 24 hours, change from baseline at end of treatment, Mean (SD)",[4]; 4 mg/day,−1.74 (2.66)
same,"Urge incontinence per 24 hours, change from baseline at end of treatment, Mean (SD)",[4]; 4 mg/day,−1.44 (2.75)
same,Treatment response (responder rate),[4]; 4 mg/day,75%
same,"Number of micturitions per 24 hours, Treatment difference vs Pbo",[4]; 8 mg vs Pbo,−0.93
same,"Urge incontinence per 24 hours, Treatment difference vs Pbo",[4]; 8 mg vs Pbo,−1.08
same,"Number of micturitions per 24 hours, ANCOVA Endpoint LS Mean",[4]; 8 mg,−1.88
same,"Urge incontinence per 24 hours, ANCOVA Endpoint LS Mean",[4]; 8 mg,−2.22
same,"Number of micturitions per 24 hours, change from baseline at end of treatment, Mean (SD)",[4]; 8 mg/day,−1.94 (3.15)
same,"Urge incontinence per 24 hours, change from baseline at end of treatment, Mean (SD)",[4]; 8 mg/day,−1.81 (2.35)
same,Treatment response (responder rate),[4]; 8 mg/day,79%
same,incidence of blurred vision,[5]; 4 mg/day,1%
same,incidence of dry throat,[5]; 4 mg/day,1%
same,incidence of urinary retention,[5]; 4 mg/day,1%
same,"Any adverse event, subjects (%)","[5]; 4 mg/day, N = 272",50%
same,"Any adverse event, subjects n","[5]; 4 mg/day, N = 272",135
same,"Constipation, subjects (%)","[5]; 4 mg/day, N = 272",3%
same,"Constipation, subjects n","[5]; 4 mg/day, N = 272",9
same,"Fatigue, subjects (%)","[5]; 4 mg/day, N = 272",(<1) %
same,"Fatigue, subjects n","[5]; 4 mg/day, N = 272",1
same,"Headache, subjects (%)","[5]; 4 mg/day, N = 272",(4) %
same,"Headache, subjects n","[5]; 4 mg/day, N = 272",12
same,"Keratoconjunctivitis sicca, subjects (%)","[5]; 4 mg/day, N = 272",2%
same,"Keratoconjunctivitis sicca, subjects n","[5]; 4 mg/day, N = 272",6
same,"Mouth dry, subjects (%)","[5]; 4 mg/day, N = 272",22%
same,"Mouth dry, subjects n","[5]; 4 mg/day, N = 272",59
same,"Nasopharyngitis, subjects (%)","[5]; 4 mg/day, N = 272",(3) %
same,"Nasopharyngitis, subjects n","[5]; 4 mg/day, N = 272",8
same,"Urinary tract infection, subjects (%)","[5]; 4 mg/day, N = 272",(3) %
same,"Urinary tract infection, subjects n","[5]; 4 mg/day, N = 272",8
same,"Any adverse event, subjects (%)",[5]; [7],(50) %
same,"Constipation, subjects (%)",[5]; [7],(3) %
same,"Keratoconjunctivitis sicca, subjects (%)",[5]; [7],(2) %
same,"Mouth dry, subjects (%)",[5]; [7],(22) %
same,incidence of blurred vision,[5]; 8 mg/day,1%
same,incidence of dry throat,[5]; 8 mg/day,3%
same,incidence of urinary retention,[5]; 8 mg/day,1%
same,"Any adverse event, subjects (%)","[5]; 8 mg/day, N = 287",58%
same,"Any adverse event, subjects n","[5]; 8 mg/day, N = 287",167
same,"Constipation, subjects (%)","[5]; 8 mg/day, N = 287",5%
same,"Constipation, subjects n","[5]; 8 mg/day, N = 287",13
same,"Fatigue, subjects (%)","[5]; 8 mg/day, N = 287",(<1) %
same,"Fatigue, subjects n","[5]; 8 mg/day, N = 287",1
same,"Headache, subjects (%)","[5]; 8 mg/day, N = 287",(2) %
same,"Headache, subjects n","[5]; 8 mg/day, N = 287",7
same,"Keratoconjunctivitis sicca, subjects (%)","[5]; 8 mg/day, N = 287",4%
same,"Keratoconjunctivitis sicca, subjects n","[5]; 8 mg/day, N = 287",12
same,"Mouth dry, subjects (%)","[5]; 8 mg/day, N = 287",34%
same,"Mouth dry, subjects n","[5]; 8 mg/day, N = 287",97
same,"Nasopharyngitis, subjects (%)","[5]; 8 mg/day, N = 287",(2) %
same,"Nasopharyngitis, subjects n","[5]; 8 mg/day, N = 287",5
same,"Urinary tract infection, subjects (%)","[5]; 8 mg/day, N = 287",(3) %
same,"Urinary tract infection, subjects n","[5]; 8 mg/day, N = 287",9
same,"Any adverse event, subjects (%)",[5]; [8],(58) %
same,"Constipation, subjects (%)",[5]; [8],(5) %
same,"Keratoconjunctivitis sicca, subjects (%)",[5]; [8],(4) %
same,"Mouth dry, subjects (%)",[5]; [8],(34) %
"Cc1ccc(O)c([C@H](CCN(C(C)C)C(C)C)c2ccccc2)c1 [Tolt, tolterodine, reference compound]","Number of micturitions per 24 hours, Treatment difference vs Pbo",[4]; 4 mg vs Pbo,−0.78
same,"Urge incontinence per 24 hours, Treatment difference vs Pbo",[4]; 4 mg vs Pbo,−0.60
same,"Number of micturitions per 24 hours, ANCOVA Endpoint LS Mean",[4]; 4 mg,−1.73
same,"Urge incontinence per 24 hours, ANCOVA Endpoint LS Mean",[4]; 4 mg,−1.74
same,"Number of micturitions per 24 hours, change from baseline at end of treatment, Mean (SD)",[4]; 4 mg/day,−1.69 (2.42)
same,"Urge incontinence per 24 hours, change from baseline at end of treatment, Mean (SD)",[4]; 4 mg/day,−1.43 (2.20)
same,Treatment response (responder rate),[4]; 4 mg/day,72%
"COc1c(N2C[C@@H]3CCCN[C@@H]3C2)c(F)cc2c(=O)c(C(=O)O)cn(C3CC3)c12 [moxifloxacin, reference compound]",mean time-averaged QTcF increase,"[3]; moxifloxacin 400 mg/day, after three days of treatment",8.6 ms
same,QTc outlier analyses vs placebo,[3],a higher incidence of QTc outliers
maltitol,hydrolyzation products and total degradation products in tablets prepared with the granulates,[6],1.1-1.7%
